Assay results reported in patent US8815305B2, “Composition containing a plant extract and process for producing same” (BASF Beauty Care Solutions France S.A.S., priority 2003, dated 2014).

Experiments:
human fibroblasts [1] = test: Cytophotoprotection of human fibroblasts against UV-A radiation; type: cell-based
Protocol: The cytoprotection against UV-A radiation was evaluated by a test on human fibroblasts because UV-A radiation penetrates through the epidermis until the derma where it induces oxidative stress (DALLE CARBONARE M, PATHAK M A; Skin photosensitising agents and the role of reactive oxygen species in photoaging; JOURNAL OF PHOTOCHEMISTRY & PHOTOBIOLOGY, 1992, 14, 1-2, pages 105-124. This oxidative stress was evaluated in vitro by measuring of the level of released MDA (malonaldehyde) and of intracellular GSH (reduced glutathione) (Morliere P., Moisan A., Santus R., Huppe G., Mazière J. C., Dubertret L.: UV-A induced lipid peroxydation in cultured human fibroblasts. Biochim. Biophys. Acta, 1084, 3, pages 261-269 (1991)).
Expressed in keywords, the experiments were carried out as follows: • Inoculation of human fibroblasts within a growth medium (standard medium with foetal calf serum (FCS) • Incubation 3 days at 37° C., CO2=5% • Exchange of growth medium with balanced salt solution • Irradiation of fibroblasts by UV-A: 20 J/cm^2 (black light TFWN lamp) (A TFWN lamp is a certain type of marketed sunlamp well known to the skilled artisan) • Exchange of growth medium with standard medium without FCS but containing ingredient to be tested • Incubation 3 days at 37° C., CO2=5% • Recovery of supernatant medium for spectrophotometric determination of the malonaldialdehde (or MDA) rate • Cells number determined by evaluation of the levels of cellular proteins (Bradford's method) and the rate of cellular GSH was evaluated according to the method of Hissin

elastase from pancreas = elastase from pancreas (Sus scrofa, UniProt P00772); test: Elastase inhibition, Elastin-Congo red as substrate; type: biochemical
Protocol: This test was carried out with an elastase from pancreas on Elastin labelled with Congo red. The time of incubation was 30 minutes at room temperature and the optical density of released Congo red was recorded after centrifugation at a wavelength of 520 nm. al-antitrypsine was used as positive reference.
The following table summarizes the results expressed as EC 50 in % w/v. (EC 50 in % w/v is the concentration in % w/v which reduces the enzymatic activity by 50%.)

[2] = Toxicity tests and growth tests on human fibroblasts (cellular proteins, Bradford); type: cell-based; conditions: human
human fibroblasts [3] = test: as above; type: cell-based
human keratinocytes = test: Cytophotoprotection of human keratinocytes against UV-B radiation; type: cell-based; conditions: for Cell number, % against control / Released LDH, % against control / Released PGE2, % against control: UVB
From the text: UV-B irradiation (from 280 to 320 nm) of the human skin induces a cutaneous inflammation mainly by activation of an enzyme (phospholipase A2 or PLA2), which releases arachidonic acid from the cell membranes of the cells of the skin (V. A. De Leo, D. Hanson, I. B. Weinstein and L. C. Harber—Ultraviolet radiation stimulates the release of arachidonic acid from mammalian cells in culture—Photochemistry and Photobiology (1985) volume 41N°1 pages 51-56). Then other specific enzymes (so called cyclo-oxygenases) transform arachidonic acid in active components called prostaglandines (or PG) which are secreted out of the cells. The fixation of certain prostaglandins (PGE2) on specific skin receptors is followed by redness and swelling as after a sunburn. On cultured human cells, these UV-B effects on cell membranes are associated with a release in the supernatant medium of a cytoplasmic enzyme, the Lactate Dehydrogenase or LDH (B. Bonnekoh, B. Farkas, J. Geisel and G. Mahrle—Lactate dehydrogenase release as an indicator of dithranol-induced membrane injury in cultured human keratinocytes. Dermatological research (1990) volume 282, pages 325-331).
Expressed in keywords, the experiments were carried out as follows: • Inoculation of human keratinocytes within growth medium (standard medium with fetal calf serum (FCS) • Incubation 3 days at 37° C., CO2=5% • Exchange of growth medium with balanced salt solution containing ingredient to be tested • Irradiation of keratinocytes by UV-B: 50 mJ/cm^2 (DUKE GL40E lamp) (A DUKE GL40E lamp is a certain type of marketed sunlamp well known to the skilled artisan) • Incubation 1 day at 37° C., CO2=5% • Numeration of adherent cells after trypsination (trypsination is a process based on the use of the enzyme trypsine which is a protease allowing the retrieval of cell from the support in order to seed the cells into a bigger flask and therefore to expand the cell culture) • Recovery of supernatant medium for spectrophotometric determination of the activity of LDH, and PGE2 by ELISA method

human fibroblasts [4] = test: Survival efficacy test on human fibroblasts (DNA, ATP, proteins, GSH); type: cell-based; conditions: for ATP / DNA / GSH/proteins / Proteins: quiescent fibroblasts, 3 days
Protocol: Human fibroblasts were inoculated in a standard medium of a cell culture with foetal calf serum (FCS). After an incubation of 3 days the cells became quiescent, then the growth medium was exchanged for a standard medium with a range of concentrations for each ingredient to be tested. After an incubation of 3 days, the number of viable cells was determined by evaluation of the levels of and the rates of cellular DNA (fluorescent probe), ATP (enzymatic method), proteins (Bradford's method) and GSH which is evaluated according to the method of Hissin (Hissin P. J., Hilf R. A, fluorometric method for determination of oxidised and reduced Glutathione in tissues. Analytical Biochemistry (1977) volume 74, pages 214-226).

[5] = target: T1, human leucocyte elastase (HLE) (Homo sapiens, UniProt P08246); conditions: cited from earlier work
T1 sequence (P08246 30-267): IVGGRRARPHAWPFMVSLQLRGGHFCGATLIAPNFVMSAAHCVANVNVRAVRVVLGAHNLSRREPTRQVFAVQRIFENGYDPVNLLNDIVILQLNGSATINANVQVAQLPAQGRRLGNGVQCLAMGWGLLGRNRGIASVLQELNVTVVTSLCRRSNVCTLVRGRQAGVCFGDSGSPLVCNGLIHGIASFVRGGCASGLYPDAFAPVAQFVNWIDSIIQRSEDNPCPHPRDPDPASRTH

[6] = system: skin chronic inflammation; conditions: in vivo; cited from earlier work

elastase from pancreas, sequence (P00772 27-266): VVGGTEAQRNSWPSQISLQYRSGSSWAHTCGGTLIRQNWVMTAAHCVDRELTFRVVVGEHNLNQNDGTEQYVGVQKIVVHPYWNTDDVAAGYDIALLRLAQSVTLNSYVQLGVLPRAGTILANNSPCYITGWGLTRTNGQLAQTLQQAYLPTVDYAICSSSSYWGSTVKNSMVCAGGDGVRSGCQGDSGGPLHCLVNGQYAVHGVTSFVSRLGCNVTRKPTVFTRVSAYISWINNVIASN

CC1(C)CC[C@]2(CO)CC[C@]3(C)C(=CC[C@@H]4[C@@]5(C)CC[C@H](O)C(C)(C)[C@@H]5CC[C@]43C)[C@@H]2C1 [erythrodiol]
protection of human fibroblasts from toxic UVA effects (human fibroblasts [1]): moderately protected
GSH/protein, % against control (human fibroblasts [1]; UV-A 20 J/cm^2, dose 0.0001%): 94%
Released MDA, % against control (human fibroblasts [1]; UV-A 20 J/cm^2, dose 0.0001%): 81%
cell's protein, % against control (human fibroblasts [1]; UV-A 20 J/cm^2, dose 0.0001%): 139%
GSH/protein, % against control (human fibroblasts [1]; UV-A 20 J/cm^2, dose 0.0003%): 22%
Released MDA, % against control (human fibroblasts [1]; UV-A 20 J/cm^2, dose 0.0003%): 70%
cell's protein, % against control (human fibroblasts [1]; UV-A 20 J/cm^2, dose 0.0003%): 42%
inhibition of proteases such as elastase (elastase from pancreas): good potential to inhibit
IC50 (elastase from pancreas; 30 minutes at room temperature, Elastin-Congo red, read-out: Elastase EC 50 (concentration which reduces the enzymatic activity by 50%) (converted)): 1.81 mM
viability at 3 days, 0.0001 % [2]: 104%
viability at 3 days, 0.0003 % [2]: 105%
viability at 3 days, 0.001 % [2]: 43%
viability at 3 days, 0.003 % [2]: 34%
LD50 (% w/v) (human fibroblasts [3]; human fibroblasts, 3 days incubation): 0.0009% w/v
safe at concentrations up to (human fibroblasts [3]; human, 3 days): up to 0.0003%
UV toxic effects on the number of viable cells (cell number and released LDH) (human keratinocytes): not modified
Cell number, % against control (human keratinocytes; dose 0.00001%): 21%
Released LDH, % against control (human keratinocytes; dose 0.00001%): 135%
Released PGE2, % against control (human keratinocytes; dose 0.00001%): 135%
Cell number, % against control (human keratinocytes; dose 0.00003%): 23%
Released LDH, % against control (human keratinocytes; dose 0.00003%): 118%
Released PGE2, % against control (human keratinocytes; dose 0.00003%): 164%
ATP (human fibroblasts [4]; 0.00001% w/v): 107%
DNA (human fibroblasts [4]; 0.00001% w/v): 96%
GSH/proteins (human fibroblasts [4]; 0.00001% w/v): 120%
Proteins (human fibroblasts [4]; 0.00001% w/v): 100%
ATP (human fibroblasts [4]; 0.00003% w/v): 99%
DNA (human fibroblasts [4]; 0.00003% w/v): 108%
GSH/proteins (human fibroblasts [4]; 0.00003% w/v): 141%
Proteins (human fibroblasts [4]; 0.00003% w/v): 97%
ATP (human fibroblasts [4]; 0.0001% w/v): 66%
DNA (human fibroblasts [4]; 0.0001% w/v): 78%
GSH/proteins (human fibroblasts [4]; 0.0001% w/v): 101%
Proteins (human fibroblasts [4]; 0.0001% w/v): 91%
ATP (human fibroblasts [4]; 0.0003% w/v): 73%
DNA (human fibroblasts [4]; 0.0003% w/v): 59%
GSH/proteins (human fibroblasts [4]; 0.0003% w/v): 88%
Proteins (human fibroblasts [4]; 0.0003% w/v): 83%
amount of GSH synthesized by human fibroblasts (human fibroblasts [4]; only at a concentration of 0.00003%): modified
interaction with the ursolic acid binding site of HLE [5]: can also interact with this binding site
activity on chronic dermal inflammation [6]: significantly effective
